Reference: patent US11028127B2, “Peptides capable of reactivating p53 mutants” (Yeda Research and Development Co. Ltd., priority 2013, dated 2021)
Where no end group is shown, it is not given here. The star is where a group is joined. Myristoyl = CCCCCCCCCCCCCC(=O)*

Tested on: Mut-p53
Test: Total activity score over combined assays (Table 8)
Set-up: scale not given here
Details: for Activity Score: Table 10 summary of activity of the peptides tested; for AS (Activity Score): total score of Table 7; for PCR, activity score / Conformation, activity score: Table 8; for PCR, activity score: head span not shown; for Conformation, activity score: the 14 score columns c4-c17 stand under the heads Conformation, DNA binding, Viability, PCR
Description: Several alternative and complementary methods to screen lead peptide candidates for conformational and functional effects on Mut-p53 were employed. For increased penetration of peptide across cell membranes each peptide contains 3-6 Arginine residues either as part of its sequence or added either at its N-terminus or its C-terminus. […] In-vitro based assays for evaluation were first performed, such as ELISA for assessment of p53 conformation and sequence-specific DNA binding of p53.

Row | Substance | Activity Score | AS (Activity Score) | PCR, activity score | Conformation, activity score
1 | pCAP72 (SCRCRLRRRRRRRRRR) | 5 | 5 |  | 
2 | pCAP14 (HHFSHHWKT) | 9 | 9 |  | 
3 | pCAP226 (DDSDNRIIRYRR) | 6 |  |  | 
4 | pCAP127 (SPPIRHH) | 3 | 3 |  | 
5 | pCAP175 (DSPR) | 0 | 0 |  | 
6 | pCAP29 (KPDSPRV) | 0 | 0 |  | 
7 | pCAP39 (DSLHSTY) | 2 | 2 |  | 
8 | pCAP291 (DLQYDFPRIRR) | 0 |  |  | 
9 | pCAP131 (LPNPPERHHRRRRRRRRRRR) | 18 | 18 |  | 
10 | pCAP138 (YPTQGHLRRRRRRRRRRRR) | 11 | 11 |  | 
11 | pCAP135 (HTDSHPHHHHPHRRRRR) | 10 | 10 |  | 
12 | pCAP264 (RRRREVHTIHQHGIVHSD) | 0 |  |  | 
13 | pCAP272 (RRPHNLHHD) | 0 |  |  | 
14 | pCAP173 (RLRRL) | 0 | 0 |  | 
15 | pCAP47 (TLYLPHWHRH) | 14 | 14 |  | 
16 | pCAP282 (Myristoyl-RRPVAPDLRHTIHIPPER) | 43 |  | 3 | 4
17 | pCAP171 (PHHHS) | 0 | 0 |  | 
18 | pCAP5 (LEVIYMI) | 2 | 2 |  | 
19 | pCAP24 (LRCLLLLIGRVG) | 23 | 23 |  | 
20 | pCAP231 (HRTQSTLILFIRRGRET) | 9 |  |  | 
21 | pCAP210 (DEFERYRRFSTSRRR) | 29 |  | 6 | 3
22 | pCAP148 (WNHHHSTPHPRRRRRRRRRR) | 43 | 43 |  | 
23 | pCAP49 (TRILCIVMM) | 8 | 8 |  | 

Row | Substance | Activity Score | AS (Activity Score) | PCR, activity score | Conformation, activity score
24 | pCAP147 (ATQHHYIKRRRRRRRRRRR) | 10 | 10 |  | 
25 | pCAP289 (RHNHIRPDNQ) | 6 |  |  | 
26 | pCAP4 (EHDFEVRGDVVNGRNHQGPK) | 2 | 2 |  | 
27 | pCAP246 (RRRLDDEDVQTPTPSEYQN) | 5 |  |  | 
28 | pCAP157 (SFILFIRRGRLGRKKRRQRRRP) | 37 | 37 |  | 
29 | pCAP105 (SRIVLGW) | 5 | 5 |  | 
30 | pCAP111 (SNIHHQV) | 5 | 5 |  | 
31 | pCAP121 (LTLMRLRIIG) | 5 | 5 |  | 
32 | pCAP62 (YELPHHAYPA) | 10 | 10 |  | 
33 | pCAP165 (SLLIG) | 0 | 0 |  | 
34 | pCAP237 (HTIHVHYPGNRQPNPPLILQR) | 12 |  |  | 
35 | pCAP241 (LIGLSTSPRPRIIR) | 0 |  |  | 
36 | pCAP309 (HPHVILPRIRIRIR) | 0 |  |  | 
37 | pCAP75 (TRILCIVRKKRRQRRRRGDR) | 32 | 32 |  | 
38 | pCAP108 (IIRGNFLIGGRL) | 17 | 17 |  | 
39 | pCAP35 (GAMHLPWHMGTL) | 28 | 28 |  | 
40 | pCAP257 (Myristoyl-HSSHHHPTVQHRR) | 8 |  |  | 
41 | pCAP293 (RRIRIDPQHD) | 2 |  |  | 
42 | pCAP46 (ASWQALALYAAGW) | 34 | 34 |  | 
43 | pCAP325 (Myristoyl-RRIRDPRILLLHFD) | 61 |  | 6 | 4
44 | pCAP82 (QIPHRSSTALQL) | 6 | 6 |  | 
45 | pCAP114 (AISHHTR) | 0 | 0 |  | 
